Assays:
CCRF-CEM = experiment: NCI-60 SRB screen; assay type: cell-based; settings: Homo sapiens, single dose 10^−5 M, Leukaemia, read-out: Growth inhibition (%)
HL-60(TB) = experiment: NCI-60 SRB screen; assay type: cell-based, human; settings: Homo sapiens; single dose 10^−5 M; HL-60(TB), Leukaemia; read-out: Growth inhibition (%)
K-562 = experiment: NCI-60 SRB screen; assay type: cell-based, human; settings: Homo sapiens, K562; single dose 10^−5 M; K-562, Leukaemia; read-out: Growth inhibition (%)
MOLT-4 = experiment: NCI-60 SRB screen; assay type: cell-based; settings: Homo sapiens; single dose 10^−5 M; MOLT-4, Leukaemia; read-out: Growth inhibition (%)
SR = experiment: NCI-60 SRB screen; assay type: cell-based; settings: Homo sapiens, single dose 10^−5 M, Leukaemia, read-out: Growth inhibition (%)
A549/ATCC = experiment: NCI-60 SRB screen; assay type: cell-based, human; settings: Homo sapiens, single dose 10^−5 M, Non-small cell lung carcinoma, read-out: Growth inhibition (%)
EKVX = experiment: NCI-60 SRB screen; assay type: cell-based, human; settings: Homo sapiens, single dose 10^−5 M, Non-small cell lung carcinoma, read-out: Growth inhibition (%)
HOP-62 = experiment: NCI-60 SRB screen; assay type: cell-based, human; settings: Homo sapiens; single dose 10^−5 M; HOP-62, Non-small cell lung carcinoma; read-out: Growth inhibition (%)
HOP-92 = experiment: NCI-60 SRB screen; assay type: cell-based, human; settings: Homo sapiens; single dose 10^−5 M; HOP-92, Non-small cell lung carcinoma; read-out: Growth inhibition (%)
NCI-H226 = experiment: NCI-60 SRB screen; assay type: cell-based, human; settings: Homo sapiens; single dose 10^−5 M; NCI-H226, Non-small cell lung carcinoma; read-out: Growth inhibition (%)
NCI-H23 = experiment: NCI-60 SRB screen; assay type: cell-based, human; settings: Homo sapiens; single dose 10^−5 M; NCI-H23, Non-small cell lung carcinoma; read-out: Growth inhibition (%)
NCI-H322M = experiment: NCI-60 SRB screen; assay type: cell-based, human; settings: Homo sapiens, single dose 10^−5 M, Non-small cell lung carcinoma, read-out: Growth inhibition (%)
NCI-H460 = experiment: NCI-60 SRB screen; assay type: cell-based, human; settings: Homo sapiens; single dose 10^−5 M; NCI-H460, Non-small cell lung carcinoma; read-out: Growth inhibition (%)
NCI-H522 = experiment: NCI-60 SRB screen; assay type: cell-based, human; settings: Homo sapiens; single dose 10^−5 M; NCI-H522, Non-small cell lung carcinoma; read-out: Growth inhibition (%)
COLO 205 = experiment: NCI-60 SRB screen; assay type: cell-based, human; settings: Homo sapiens; single dose 10^−5 M; COLO 205, Colon cancer; read-out: Growth inhibition (%)
HCC-2998 = experiment: NCI-60 SRB screen; assay type: cell-based, human; settings: Homo sapiens; single dose 10^−5 M; HCC-2998, Colon cancer; read-out: Growth inhibition (%)
HCT-116 = experiment: NCI-60 SRB screen; assay type: cell-based, human; settings: Homo sapiens; single dose 10^−5 M; HCT-116, Colon cancer; read-out: Growth inhibition (%)
HCT-15 = experiment: NCI-60 SRB screen; assay type: cell-based, human; settings: Homo sapiens; single dose 10^−5 M; HCT-15, Colon cancer; read-out: Growth inhibition (%)
HT-29 = experiment: NCI-60 SRB screen; assay type: cell-based; settings: Homo sapiens; single dose 10^−5 M; HT-29, Colon cancer; read-out: Growth inhibition (%)
KM12 = experiment: NCI-60 SRB screen; assay type: cell-based, human; settings: Homo sapiens; single dose 10^−5 M; KM12, Colon cancer; read-out: Growth inhibition (%)
SW-620 = experiment: NCI-60 SRB screen; assay type: cell-based; settings: Homo sapiens; single dose 10^−5 M; SW-620, Colon cancer; read-out: Growth inhibition (%)
SF-268 = experiment: NCI-60 SRB screen; assay type: cell-based, human; settings: Homo sapiens; single dose 10^−5 M; SF-268, CNS cancer; read-out: Growth inhibition (%)
SF-295 = experiment: NCI-60 SRB screen; assay type: cell-based, human; settings: Homo sapiens; single dose 10^−5 M; SF-295, CNS cancer; read-out: Growth inhibition (%)
LOX IMVI = experiment: NCI-60 SRB screen; assay type: cell-based, human; settings: Homo sapiens, single dose 10^−5 M, Melanoma, read-out: Growth inhibition (%)
MALME-3M = experiment: NCI-60 SRB screen; assay type: cell-based, human; settings: Homo sapiens, single dose 10^−5 M, Melanoma, read-out: Growth inhibition (%)
M14 = experiment: NCI-60 SRB screen; assay type: cell-based, human; settings: Homo sapiens; single dose 10^−5 M; M14, Melanoma; read-out: Growth inhibition (%)
MDA-MB-435 = experiment: NCI-60 SRB screen; assay type: cell-based; settings: Homo sapiens, MDA-MB-435, read-out: Growth inhibition (%)
SK-MEL-2 = experiment: NCI-60 SRB screen; assay type: cell-based, human; settings: Homo sapiens; single dose 10^−5 M; SK-MEL-2, Melanoma; read-out: Growth inhibition (%)
SK-MEL-28 = experiment: NCI-60 SRB screen; assay type: cell-based; settings: Homo sapiens; single dose 10^−5 M; SK-MEL-28, Melanoma; read-out: Growth inhibition (%)
SK-MEL-5 = experiment: NCI-60 SRB screen; assay type: cell-based, human; settings: Homo sapiens; single dose 10^−5 M; SK-MEL-5, Melanoma; read-out: Growth inhibition (%)
UACC-257 = experiment: NCI-60 SRB screen; assay type: cell-based, human; settings: Homo sapiens; single dose 10^−5 M; UACC-257, Melanoma; read-out: Growth inhibition (%)
UACC-62 = experiment: NCI-60 SRB screen; assay type: cell-based, human; settings: Homo sapiens; single dose 10^−5 M; UACC-62, Melanoma; read-out: Growth inhibition (%)
IGROV1 = experiment: NCI-60 SRB screen; assay type: cell-based, human; settings: Homo sapiens, IGROV-1; single dose 10^−5 M; IGROV1, Ovarian cancer; read-out: Growth inhibition (%)
OVCAR-3 = experiment: NCI-60 SRB screen; assay type: cell-based, human; settings: Homo sapiens; single dose 10^−5 M; OVCAR-3, Ovarian cancer; read-out: Growth inhibition (%)
OVCAR-4 = experiment: NCI-60 SRB screen; assay type: cell-based, human; settings: Homo sapiens; single dose 10^−5 M; OVCAR-4, Ovarian cancer; read-out: Growth inhibition (%)
OVCAR-8 = experiment: NCI-60 SRB screen; assay type: cell-based, human; settings: Homo sapiens; single dose 10^−5 M; OVCAR-8, Ovarian cancer; read-out: Growth inhibition (%)
NCI/ADR-RES = experiment: NCI-60 SRB screen; assay type: cell-based, human; settings: Homo sapiens, single dose 10^−5 M, Ovarian cancer, read-out: Growth inhibition (%)
SK-OV-3 = experiment: NCI-60 SRB screen; assay type: cell-based, human; settings: Homo sapiens; single dose 10^−5 M; SK-OV-3, Ovarian cancer; read-out: Growth inhibition (%)
786-0 = experiment: NCI-60 SRB screen; assay type: cell-based; settings: Homo sapiens; single dose 10^−5 M; 786-0, Renal cancer; read-out: Growth inhibition (%)
ACHN = experiment: NCI-60 SRB screen; assay type: cell-based; settings: Homo sapiens, single dose 10^−5 M, Renal cancer, read-out: Growth inhibition (%)
CAKI-1 = experiment: NCI-60 SRB screen; assay type: cell-based, human; settings: Homo sapiens; single dose 10^−5 M; CAKI-1, Renal cancer; read-out: Growth inhibition (%)
SN12C = experiment: NCI-60 SRB screen; assay type: cell-based, human; settings: Homo sapiens, SN12C; single dose 10^−5 M; SN 12 C, Renal cancer; read-out: Growth inhibition (%)
TK-10 = experiment: NCI-60 SRB screen; assay type: cell-based, human; settings: Homo sapiens; single dose 10^−5 M; TK-10, Renal cancer; read-out: Growth inhibition (%)
UO-31 = experiment: NCI-60 SRB screen; assay type: cell-based, human; settings: Homo sapiens; single dose 10^−5 M; UO-31, Renal cancer; read-out: Growth inhibition (%)
[1] = test system: panel of 60 cancer cell lines; experiment: NCI-60 SRB screen, mean or range over the panel; assay type: cell-based, human; settings: Homo sapiens; mean over the cell lines; single dose 10^−5 M; read-out: Mean growth inhibition (%)

Q: Which results are given for `O=[N+]([O-])c1cccc(C2NC(N3CCOCC3)=C(Cl)c3c2sc2c(F)cccc32)c1` (stereo not drawn) [Compound 8b, 4-Chloro-3-(4-morpholino)-8-fluoro-1-(3-nitrophenyl)-1,2-dihydro [1]benzothieno[2,3-c]pyridine]?
A: inhibition at 10 µM (CCRF-CEM): 5%; inhibition at 10 µM (HL-60(TB)): -10.1%; inhibition at 10 µM (K-562): 18.6%; inhibition at 10 µM (MOLT-4): 13.6%; inhibition at 10 µM (SR): 20.4%; inhibition at 10 µM (A549/ATCC): -0.74%; inhibition at 10 µM (EKVX): 14.3%; inhibition at 10 µM (HOP-62): 16.1%; inhibition at 10 µM (HOP-92): 22.2%; inhibition at 10 µM (NCI-H226): 20.9%; inhibition at 10 µM (NCI-H23): 5.35%; inhibition at 10 µM (NCI-H322M): 0.04%; inhibition at 10 µM (NCI-H460): 6.4%; inhibition at 10 µM (NCI-H522): 17.3%; inhibition at 10 µM (COLO 205): -12.9%; inhibition at 10 µM (HCC-2998): -13.5%; inhibition at 10 µM (HCT-116): 25.3%; inhibition at 10 µM (HCT-15): 4.11%; inhibition at 10 µM (HT-29): 0.78%; inhibition at 10 µM (KM12): 6.99%; inhibition at 10 µM (SW-620): 7.44%; inhibition at 10 µM (SF-268): 7.66%; inhibition at 10 µM (SF-295): 4.37%; inhibition at 10 µM (LOX IMVI): 8.33%; inhibition at 10 µM (MALME-3M): -3.09%; inhibition at 10 µM (M14): 7.49%; inhibition at 10 µM (MDA-MB-435): -2.51%; inhibition at 10 µM (SK-MEL-2): 8.89%; inhibition at 10 µM (SK-MEL-28): -7.54%; inhibition at 10 µM (SK-MEL-5): -8.74%; inhibition at 10 µM (UACC-257): -3.74%; inhibition at 10 µM (UACC-62): 17.5%; inhibition at 10 µM (IGROV1): 16.2%; inhibition at 10 µM (OVCAR-3): 2.72%; inhibition at 10 µM (OVCAR-4): 13.5%; inhibition at 10 µM (OVCAR-8): 1.71%; inhibition at 10 µM (NCI/ADR-RES): 1.45%; inhibition at 10 µM (SK-OV-3): -1.6%; inhibition at 10 µM (786-0): -6.62%; inhibition at 10 µM (ACHN): 9.98%; inhibition at 10 µM (CAKI-1): 32.5%; inhibition at 10 µM (SN12C): 3.71%; inhibition at 10 µM (TK-10): -39.7%; inhibition at 10 µM (UO-31): 38.6%; inhibition at 10 µM [1]: 6.1%

Q: What does the source list for `O=[N+]([O-])c1cccc(C2NC(N3CCCCC3)=C(Cl)c3c2sc2c(F)cccc32)c1` (stereo not drawn) [Compound 8c, 4-Chloro-3-(piperidin-1-yl)-8-fluoro-1-(3-nitrophenyl)-1,2-dihydro [1]benzothieno[2,3-c]pyridine]?
A: inhibition at 10 µM (CCRF-CEM): 30.3%; inhibition at 10 µM (HL-60(TB)): 18.7%; inhibition at 10 µM (K-562): 14.1%; inhibition at 10 µM (MOLT-4): 35.6%; inhibition at 10 µM (SR): 10.1%; inhibition at 10 µM (A549/ATCC): 5.05%; inhibition at 10 µM (EKVX): 19.1%; inhibition at 10 µM (HOP-62): 5.22%; inhibition at 10 µM (HOP-92): 9.27%; inhibition at 10 µM (NCI-H226): 28.2%; inhibition at 10 µM (NCI-H23): 3.42%; inhibition at 10 µM (NCI-H322M): -0.59%; inhibition at 10 µM (NCI-H460): 3%; inhibition at 10 µM (NCI-H522): 17.7%; inhibition at 10 µM (COLO 205): -12.7%; inhibition at 10 µM (HCC-2998): -6.85%; inhibition at 10 µM (HCT-116): 1.95%; inhibition at 10 µM (HCT-15): 3.84%; inhibition at 10 µM (HT-29): -2.62%; inhibition at 10 µM (KM12): 3.41%; inhibition at 10 µM (SW-620): 1.71%; inhibition at 10 µM (SF-268): 6.19%; inhibition at 10 µM (SF-295): -6.6%; inhibition at 10 µM (LOX IMVI): -0.7%; inhibition at 10 µM (MALME-3M): 4.61%; inhibition at 10 µM (M14): 1.39%; inhibition at 10 µM (MDA-MB-435): 2%; inhibition at 10 µM (SK-MEL-2): 2.66%; inhibition at 10 µM (SK-MEL-28): -16.7%; inhibition at 10 µM (SK-MEL-5): 0.27%; inhibition at 10 µM (UACC-257): -10.3%; inhibition at 10 µM (UACC-62): 8.57%; inhibition at 10 µM (IGROV1): 17.4%; inhibition at 10 µM (OVCAR-3): -1.68%; inhibition at 10 µM (OVCAR-4): 12.3%; inhibition at 10 µM (OVCAR-8): -6.18%; inhibition at 10 µM (NCI/ADR-RES): -2.62%; inhibition at 10 µM (SK-OV-3): 9.9%; inhibition at 10 µM (786-0): -0.24%; inhibition at 10 µM (ACHN): 6.2%; inhibition at 10 µM (CAKI-1): 18.8%; inhibition at 10 µM (SN12C): 3.66%; inhibition at 10 µM (TK-10): -22.4%; inhibition at 10 µM (UO-31): 38%; inhibition at 10 µM [1]: 7.22%

From publication PMC8330742, “New benzothieno[2,3-c]pyridines as non-steroidal CYP17 inhibitors: design, synthesis, anticancer screening, apoptosis induction, and in silico ADME profile studies” (Journal of Enzyme Inhibition and Medicinal Chemistry, 2021)
